The text below walks through data of ChEMBL document CHEMBL1201862, “PubChem BioAssay data set” (2004).

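The compound was tested at five concentrations on cells cultured in 96-well plates, with a 48-hour exposure period. The concentration for 50% growth inhibition is given as GI50.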 Calls of active or inactive are those of the source. Cut-off read from the data, not from the text of the source: active = GI50 up to about 1.1 µM and inactive = higher.

Test systems include Malme-3M; U-251; IGROV-1; UO-31; M14; MCF7; RPMI-8226; HT-29; HCC 2998; SK-OV-3; RXF 393; OVCAR-3; PC-3; OVCAR-4; BT-549; KM12; CAKI-1; UACC-257; HL-60; HOP-92.
What all share (assay): NCI tumour cell line growth inhibition, 48 h

Turning to `CN(C)CCNC1=Nc2ccccc2C(=O)N2CSCC12` (stereo not drawn), the GI50 with Malme-3M, in the assay on U-251, in the assay on IGROV-1, with UO-31, in the assay on M14 and in the assay with MCF7 was > 100 µM (inactive) in each case. The GI50 in the assay with RPMI-8226, in the assay with HT-29, with HCC 2998, in the assay on SK-OV-3, in the assay with RXF 393 and in the assay with OVCAR-3 was > 100 µM (inactive) throughout. Further, the GI50 in the assay on PC-3, in the assay on OVCAR-4, in the assay on BT-549, in the assay with KM12, in the assay on CAKI-1 and in the assay on UACC-257 was > 100 µM (inactive) throughout.
As to `CC(C)(C)OC(=O)N/N=C(/N)Cc1ccc(Cl)cc1`, the GI50 with Malme-3M, with U-251, in the assay with IGROV-1, with UO-31, in the assay on M14 and in the assay on MCF7 was > 100 µM (inactive) throughout. Besides, the GI50 in the assay with HT-29 is 73.1 µM (inactive); in the assay with HCC 2998, > 100 µM (inactive); with SK-OV-3 it was > 100 µM (inactive); in the assay with RXF 393 it was > 100 µM (inactive); in the assay with OVCAR-3, > 100 µM (inactive); in the assay on PC-3 it was > 100 µM (inactive). The GI50 in the assay on OVCAR-4, in the assay on BT-549, with KM12, in the assay on CAKI-1 and with UACC-257 was > 100 µM (inactive) each time.
For `COc1cc([N+](=O)[O-])cc2c1NC(=O)C2(C)SC` (stereo not drawn), the GI50 in the assay with Malme-3M is > 100 µM (inactive); in the assay on U-251 it was > 100 µM (inactive); in the assay with IGROV-1, > 100 µM (inactive); in the assay with UO-31, > 100 µM (inactive); in the assay with M14, 52.8 µM (inactive); with MCF7 it was 79.4 µM (inactive). Besides, the GI50 in the assay with RPMI-8226 was > 100 µM (inactive); in the assay on HT-29 it was > 100 µM (inactive); with HCC 2998 it was > 100 µM (inactive); with SK-OV-3, 25.4 µM (inactive); with RXF 393, 86.7 µM (inactive); with OVCAR-3, 77.3 µM (inactive). In addition, the GI50 in the assay with PC-3 is > 100 µM (inactive); in the assay with OVCAR-4, 90.2 µM (inactive); in the assay on BT-549, > 100 µM (inactive); with KM12 it was > 100 µM (inactive); in the assay with CAKI-1, > 100 µM (inactive); in the assay with HL-60, 18.3 µM (inactive). The GI50 in the assay on UACC-257 was > 100 µM (inactive).
Take `N=C1N(S(=O)(=O)c2ccccc2)[C@@H](Cc2ccccc2)[C@H](c2ccccc2)C1(c1ccccc1)c1ccccc1`: the GI50 in the assay with Malme-3M is > 100 µM (inactive); in the assay on U-251, 64.1 µM (inactive); with IGROV-1, > 100 µM (inactive); in the assay with UO-31, 8.55 µM (inactive); in the assay on M14 it was > 100 µM (inactive); in the assay with MCF7 it was > 100 µM (inactive). The GI50 in the assay on RPMI-8226 was 14 µM (inactive); in the assay on HT-29, > 100 µM (inactive); in the assay with HCC 2998 it was 27.2 µM (inactive); in the assay on SK-OV-3, > 100 µM (inactive); with RXF 393, 63.2 µM (inactive); in the assay on OVCAR-3, 10.4 µM (inactive). The GI50 was 9.62 µM (inactive) with PC-3; > 100 µM (inactive) with OVCAR-4; > 100 µM (inactive) in the assay on BT-549; 31.4 µM (inactive) with KM12; > 100 µM (inactive) in the assay with CAKI-1; 4.12 µM (inactive) with HL-60. The GI50 with UACC-257 is 35.6 µM (inactive).
In the case of `COc1ccccc1NC(=S)NNC(=O)c1cc(-c2ccccc2)nc2ccccc12`, the GI50 in the assay with Malme-3M was 4.69 µM (inactive); with U-251, 9.59 µM (inactive); in the assay on IGROV-1, 13.9 µM (inactive); with UO-31 it was 11 µM (inactive); with M14, 11.9 µM (inactive); in the assay with HOP-92, 12.8 µM (inactive). Moreover, the GI50 in the assay on RPMI-8226 was 6.97 µM (inactive); with HT-29, 21.9 µM (inactive); with HCC 2998 it was 13.6 µM (inactive); with SK-OV-3, 16.9 µM (inactive); in the assay on RXF 393, 3.27 µM (inactive); in the assay on OVCAR-3 it was 4.45 µM (inactive). Moreover, the GI50 was 10.3 µM (inactive) in the assay on PC-3; 14.7 µM (inactive) in the assay with OVCAR-4; 8.26 µM (inactive) in the assay on BT-549; 7.01 µM (inactive) with KM12; 10.7 µM (inactive) with CAKI-1; 18.2 µM (inactive) with UACC-257.
For `NC(CC(O)(c1ccccc1)c1ccccc1)c1ccccc1S` (stereo not drawn), the GI50 in the assay with Malme-3M was 25.7 µM (inactive); in the assay on U-251 it was 15.1 µM (inactive); in the assay with IGROV-1 it was > 10 µM (inactive); with UO-31, 11.4 µM (inactive); with M14, 15.4 µM (inactive); with MCF7, 15.2 µM (inactive). Also, the GI50 with RPMI-8226 is 22.2 µM (inactive); in the assay with HT-29, 14.5 µM (inactive); with HCC 2998, 17.3 µM (inactive); in the assay on SK-OV-3, 18.7 µM (inactive); in the assay on RXF 393, 17 µM (inactive); in the assay with OVCAR-3, 16 µM (inactive). For the same molecule, the GI50 was 11.4 µM (inactive) in the assay on PC-3; 15.9 µM (inactive) with OVCAR-4; 14.7 µM (inactive) in the assay on BT-549; 12.5 µM (inactive) with KM12; 15 µM (inactive) with HL-60; 18.9 µM (inactive) with UACC-257.
`COC(=O)[C@@](C)(COC(=O)C(C)(C)C)NC(=O)OC(C)(C)C`: the GI50 in the assay with Malme-3M, in the assay with U-251, with IGROV-1, in the assay with UO-31, in the assay with M14 and with MCF7 was > 100 µM (inactive) each time. The GI50 in the assay with RPMI-8226, in the assay on HT-29, with HCC 2998, in the assay on SK-OV-3, in the assay with RXF 393 and in the assay with PC-3 was > 100 µM (inactive) throughout. In addition, the GI50 in the assay with OVCAR-4, in the assay with BT-549, in the assay on KM12, with CAKI-1 and with UACC-257 was > 100 µM (inactive) in each case.
On to `NC1CC(=O)c2c1sc(Cl)c2Cl` (stereo not drawn), for which the GI50 with Malme-3M, with U-251, in the assay on IGROV-1, in the assay on UO-31, with M14 and with MCF7 was > 100 µM (inactive) in each case. In addition, the GI50 in the assay with RPMI-8226, with HT-29, in the assay on HCC 2998, in the assay with SK-OV-3, in the assay on RXF 393 and in the assay with OVCAR-3 was > 100 µM (inactive) throughout. The GI50 with PC-3, in the assay on BT-549, with KM12, in the assay on CAKI-1, with HL-60 and in the assay with UACC-257 was > 100 µM (inactive) in each case.
As for `O=C(Sc1n[nH]c(=O)[nH]c1=O)c1cccc2nc3ccccc3nc12`, the GI50 in the assay on Malme-3M was 5.64 µM (inactive); with U-251, > 100 µM (inactive); in the assay with IGROV-1 it was > 100 µM (inactive); in the assay with M14 it was 23.6 µM (inactive); with MCF7, 7.67 µM (inactive); in the assay on HOP-92, > 100 µM (inactive). Besides, the GI50 in the assay on RPMI-8226 was 78.5 µM (inactive); in the assay on HT-29, 13.5 µM (inactive); with HCC 2998, 27.9 µM (inactive); in the assay with SK-OV-3, > 100 µM (inactive); with RXF 393, > 100 µM (inactive); in the assay on OVCAR-3 it was 50 µM (inactive). Besides, the GI50 in the assay with OVCAR-4 is 76.9 µM (inactive); in the assay with BT-549 it was 8.36 µM (inactive); in the assay on KM12 it was 39 µM (inactive); in the assay on CAKI-1, 78.3 µM (inactive); in the assay on HL-60, > 100 µM (inactive); in the assay with UACC-257 it was 13.2 µM (inactive).
As to `CCc1n[nH]c(=O)n1/N=C/c1ccccc1Cl`, the GI50 in the assay with Malme-3M is > 100 µM (inactive); in the assay on U-251 it was 65.8 µM (inactive); in the assay on IGROV-1, 78.3 µM (inactive); in the assay on UO-31, > 100 µM (inactive); with M14 it was > 100 µM (inactive); in the assay with MCF7, > 100 µM (inactive). The GI50 with HOP-92 was 74.8 µM (inactive); with RPMI-8226, > 100 µM (inactive); in the assay on HT-29, > 100 µM (inactive); in the assay with HCC 2998, > 100 µM (inactive); in the assay on SK-OV-3, > 100 µM (inactive); with RXF 393, 0.474 µM (active). The GI50 was > 100 µM (inactive) with OVCAR-3; > 100 µM (inactive) with OVCAR-4; > 100 µM (inactive) in the assay with BT-549; 93.8 µM (inactive) in the assay on KM12; > 100 µM (inactive) with CAKI-1; > 100 µM (inactive) with HL-60. In the assay with UACC-257, the GI50 was > 100 µM (inactive).
Turning to `CC(Br)C(=O)NN1C2=C(Nc3ccccc31)c1cccc3cccc2c13` (stereo not drawn), the GI50 in the assay on Malme-3M was > 100 µM (inactive); with U-251 it was 41.5 µM (inactive); in the assay with IGROV-1 it was 34.4 µM (inactive); with UO-31, > 100 µM (inactive); with M14, > 100 µM (inactive); with MCF7 it was 34.5 µM (inactive). In addition, the GI50 with RPMI-8226 is 48.4 µM (inactive); with HT-29 it was 49.1 µM (inactive); with HCC 2998, 13.5 µM (inactive); in the assay with RXF 393 it was > 100 µM (inactive); in the assay with OVCAR-3, 49.3 µM (inactive); with PC-3 it was > 100 µM (inactive). For the same molecule, the GI50 with BT-549 is > 100 µM (inactive); in the assay on KM12, > 100 µM (inactive); in the assay on CAKI-1, 74 µM (inactive); in the assay with HL-60, 57.5 µM (inactive); in the assay on UACC-257, 48.2 µM (inactive).
